Columns and labels:
LC3-I/LC3-II = test: Immunoblotting for LC3-I conversion to LC3-II (autophagy); type: cell-based, human; details: A2058, 3-MA 5 mM
Procedure: (§1) FIG. 14. ΔPK induced autophagy contributes to its ability to cause melanoma cell death. (A) A2058 cells were mock or ΔPK-infected (multiplicity of infection, moi=1.0) with and without the autophagy inhibitor 3-MA and protein extracts were assayed for LC3-I and LC3-II expression by immunoblotting. Data were quantified by densitometric scanning, and results are expressed as LC3-I/LC3-II ratio±s.d. (B). A2058 melanoma cultures were mock or ΔPK-infected (moi=5), cultured in serum-free medium and stained with ethidium homodimer-1 (EtHD-1) at 48 h p.i. Cells were counted in three randomly selected fields (>250 cells) and the mean percentage of staining cells was calculated.
The role of autophagy in cell death is still controversial. The general consensus is that autophagy is a mechanism that promotes or counteracts cell death depending on the cell type, stimulus and conditions. […] To examine whether autophagy was increased in ΔPK infected cells, we focused on LC3-I conversion to LC3-II which serves as a marker for autophagosome maturation.
A2058 cells were mock and ΔPK-infected (multiplicity of infection, moi=1.0) with and without the autophagy inhibitor 3-MA. Data were quantified by densitometric scanning, and results are expressed as the ratio of the LC3-I/LC3-II ratio±s.d.

A2058 melanoma cultures = test: EtHD-1 cell death with or without autophagy inhibitor; type: cell-based, human; details: A2058, ΔPK plus 3-MA, 48 h p.i.
Procedure: as §1
To examine the role of autophagy in ΔPK-induced melanoma cell death, the cultures were mock-infected with PBS or infected with ΔPK in the absence or presence of 3-MA and cell death was determined at 0-72 h p.i. by EtHD-1 staining. ΔPK caused a time-dependent increase in the percentage of EtHD-1+ cells that reached maximal levels at 48 h p.i. (51.1±4.8%,).
A2058 melanoma cultures were mock or ΔPK-infected (moi=0.5), cultured in serum-free medium and stained with ethidium homodimer-1 (EtHD-1) at 48 h p.i. Cells were counted in three randomly selected fields (>250 cells) and the mean percentage of staining cells was calculated.

Compound: Cn1cnc(N)c2ncnc1-2 [3-MA, 3-Methyl-adenine]
- effect of inhibitor on LC3-I conversion after ΔPK treatment (LC3-I/LC3-II): reversed LC3-I conversion
- percentage of cell death (EtHD-1+) in ΔPK infected cultures in presence of inhibitor (A2058 melanoma cultures): 37.3±5.2%

From patent US8414885B2, “Methods and compositions for treating cancer” (priority 2009, dated 2013)
